# Experimental data from patent US20260317324A1, “BIFUNCTIONAL COMPOUNDS FOR DEGRADING BRAF VIA UBIQUITIN PROTEOSOME PATHWAY” (Nurix Therapeutics, Inc., priority 2023, published 2026).
# How the values were obtained:
# Format in all cases: cell-based
# BRAF D594G = target: T1, BRAF D594G (Homo sapiens, UniProt P15056, D594G); assay: BRAF HiBiT degradation assay, C-terminal HiBiT-tagged BRAF D594G overexpressed in HCT-116 BRAF−/− cells (clone 63), Nano-Glo HiBiT Lytic assay
# T1 construct: Horizon Discovery (HCT-116 BRAF−/− cells); host or cells: HCT-116 BRAF−/− cells, clone 63, lentiviral transduction
# Text: (§1) An A375 cell line expressing a homozygous V600E mutation was purchased from ATCC (Manassas, VA, USA). An A375 clone 1F10 cell line with an endogenous C-terminal HiBiT fusion tag on BRAF V600E allele was generated internally using CRISPR-Cas9 technology and cultured in DMEM, high glucose supplemented with 10% FBS and 1× GlutaMAX. A HCT-116 BRAF−/− cell line overexpressing the C-terminal HiBiT-tagged G466V, G469A, and D594G mutants were generated by lentiviral transduction, externally at Biosettia Inc (San Diego, CA, USA). The stably transfected cells were cultured in RPMI media supplemented with 10% FBS, 1× GlutaMAX, and 0.25 μg/ml puromycin. DMEM medium, RPMI 1640 medium, GlutaMAX, fetal bovine serum (FBS), and puromycin were purchased from Gibco (Grand Island, NY, USA). HCT-116 BRAF−/− cells were purchased from Horizon Discovery (Waterbeach, UK).
# (§2) The C-terminal HiBiT tagged mutant BRAF G466V, G469A, and D594G overexpressed in HCT-116 BRAF−/− cells (monoclonal cell line, cell clones 8, 34, and 63, respectively) were seeded at the density of 3,000 cells/well in 30 μL media (RPMI supplemented with 10% FBS and 1× GlutaMAX) in white opaque 384-well plates (Corning #3570) from column 1 to column 23. Wildtype HCT-116 BRAF cells were seeded in column 24 at the same cell density in 30 μL media. Cells were incubated at 37° C. with 5% CO2 for 24 h.
# (§3) Intermediate compound dilution series (5-point, ranging from 5 mM to 0.5 μM, 10-fold dilutions in DMSO) were prepared in a source plate (Beckman Coulter cat. no. 001-16128). Final compound dilution series (11-point, ranging from 1 μM to 0.01 nM, half-log dilutions in DMSO) were stamped into the assay plate (Corning #3570, column 1-11 and 12-22) using the Echo Acoustic Liquid Handler (Beckman Coulter). Each compound was plated in duplicate, and the total volume of compound DMSO solution was 60 nL/well (0.2% final DMSO concentration). DMSO was included in wells A23-L23 and A24-L24. The DMSO-treated HiBiT-tagged samples served as Negative Control (NC) and the DMSO-treated wildtype samples served as Background Control (BC) for the HiBiT assay.
# (§4) HiBiT signal was measured by a Nano-Glo HiBiT Lytic assay (Promega cat. no. N3050). HiBiT lytic detection reagent (Nano-Glo HiBiT Lytic Buffer with 1:50 Nano-Glo HiBiT Lytic Substrate and 1:100 LgBiT Protein, 40 μL) was added using Bravo. The mixture was incubated at room temperature, in the dark, and with gentle shaking for 10 min. Luminesce units (LU) were read on an EnVision plate reader 2105 (Perkin Elmer).
# (§5) Percent protein remaining and viability remaining per sample were calculated as follows: […]
# (§6) % Protein remaining values were plotted as a function of compound concentration. XC50 (DC50) values were determined by fitting curves using the following equation:
# (§7) For the HiBiT degradation assay, the key parameters reported include: • The dose of compound that produces 50% degradation (DC50 at 50%): • DC50 at 50%: the Fitted X value (Conc.) at Y=50 (response) • Observed Dmax (Obs. Dmax) is the percentage protein degraded at maximal compound effect relative to DMSO-treated control: […]
# BRAF G466V = target: T2, BRAF G466V (Homo sapiens, UniProt P15056, G466V); assay: BRAF HiBiT degradation assay, C-terminal HiBiT-tagged BRAF G466V overexpressed in HCT-116 BRAF−/− cells (clone 8), Nano-Glo HiBiT Lytic assay
# T2 construct: Horizon Discovery (HCT-116 BRAF−/− cells); host or cells: HCT-116 BRAF−/− cells, clone 8, lentiviral transduction
# Text: as §1, §2, §3, §4, §5, §6, §7
# BRAF V600E = target: T3, BRAF V600E (Homo sapiens, UniProt P15056, V600E); assay: BRAF HiBiT degradation assay, C-terminal HiBiT-tagged BRAF V600E A375 cells (clone 1F10), Nano-Glo HiBiT Lytic assay; conditions: for Dmax: A-375
# T3 construct: endogenous C-terminal HiBiT fusion tag on BRAF V600E allele; endogenous in cells; host or cells: A375 clone 1F10 (CRISPR-Cas9 knock-in of the HiBiT tag; parental A375 from ATCC)
# How it was run: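 A375 cells (clone 1F10, endogenous C-terminal HiBiT on BRAF V600E) were seeded at 10,000 cells/well, grown 24 h, then dosed in duplicate with an 11-point series from 1 μM to 0.01 nM (0.2% DMSO). Nano-Glo HiBiT lytic luminescence was normalised to DMSO and wildtype-A375 background; DC50 was read at 50% protein remaining, alongside observed Dmax.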
# BRAF G469A = target: T4, BRAF G469A (Homo sapiens, UniProt P15056, G469A); assay: BRAF HiBiT degradation assay, C-terminal HiBiT-tagged BRAF G469A overexpressed in HCT-116 BRAF−/− cells (clone 34), Nano-Glo HiBiT Lytic assay
# T4 construct: Horizon Discovery (HCT-116 BRAF−/− cells); host or cells: HCT-116 BRAF−/− cells, clone 34, lentiviral transduction
# Text: as §1, §2, §3, §4, §5, §6, §7
# [1] = BRAF D594G, DC50 at 50%: fitted conc. at Y=50
# [2] = HCT-116, BRAF D594G, percentage protein degraded at maximal compound effect relative to DMSO
# [3] = BRAF G466V, DC50 at 50%: fitted conc. at Y=50
# [4] = HCT-116, BRAF G466V, percentage protein degraded at maximal compound effect relative to DMSO
# [5] = A375 (BRAF V600E), DC50 at 50%: fitted conc. at Y=50
# [6] = A375 (BRAF V600E), percentage protein degraded at maximal compound effect relative to DMSO
# [7] = Class 2, BRAF G469A, DC50 at 50%: fitted conc. at Y=50
# [8] = HCT-116, Class 2, BRAF G469A, percentage protein degraded at maximal compound effect relative to DMSO
# [9] = BRAF D594G (Class 3), HCT-116 BRAF−/− cells, DC50 at 50% degradation
# [10] = BRAF D594G (Class 3), HCT-116 BRAF−/− cells, observed Dmax relative to DMSO control
# [11] = BRAF G466V (Class 3), HCT-116 BRAF−/− cells, DC50 at 50% degradation
# [12] = BRAF G466V (Class 3), HCT-116 BRAF−/− cells, observed Dmax relative to DMSO control
# [13] = A375 (BRAF V600E, Class 1), DC50 at 50% degradation
# [14] = A375 (BRAF V600E, Class 1), observed Dmax, % protein degraded relative to DMSO control
# [15] = BRAF G469A (Class 2), HCT-116 BRAF−/− cells, DC50 at 50% degradation
# [16] = BRAF G469A (Class 2), HCT-116 BRAF−/− cells, observed Dmax relative to DMSO control
# T2 sequence (P15056 whole entry G466V): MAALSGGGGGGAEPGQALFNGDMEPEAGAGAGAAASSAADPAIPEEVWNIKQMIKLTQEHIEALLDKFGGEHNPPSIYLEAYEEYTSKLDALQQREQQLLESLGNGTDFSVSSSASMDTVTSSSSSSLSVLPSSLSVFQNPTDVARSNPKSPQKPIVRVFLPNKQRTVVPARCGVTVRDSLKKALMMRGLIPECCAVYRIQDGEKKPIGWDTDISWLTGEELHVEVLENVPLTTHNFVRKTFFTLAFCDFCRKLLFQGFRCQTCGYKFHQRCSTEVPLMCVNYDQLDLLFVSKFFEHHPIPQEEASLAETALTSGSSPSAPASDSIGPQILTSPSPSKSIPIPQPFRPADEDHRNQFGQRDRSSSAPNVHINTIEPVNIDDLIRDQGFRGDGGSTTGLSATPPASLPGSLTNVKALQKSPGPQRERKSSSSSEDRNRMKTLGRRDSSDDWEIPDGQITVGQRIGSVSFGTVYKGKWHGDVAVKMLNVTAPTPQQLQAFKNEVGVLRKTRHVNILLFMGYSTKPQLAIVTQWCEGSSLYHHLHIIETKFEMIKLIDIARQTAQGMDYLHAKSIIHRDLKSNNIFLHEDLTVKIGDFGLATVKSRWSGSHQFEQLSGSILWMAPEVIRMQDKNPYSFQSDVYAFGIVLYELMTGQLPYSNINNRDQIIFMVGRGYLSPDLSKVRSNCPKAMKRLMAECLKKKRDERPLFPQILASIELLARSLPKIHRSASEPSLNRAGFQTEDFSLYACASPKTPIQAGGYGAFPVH
# T1 sequence (P15056 whole entry D594G): as the sequence (P15056 whole entry G466V) above, with V466G, D594G counted along it
# T3 sequence (P15056 whole entry V600E, the tested form may be a part): as the sequence (P15056 whole entry G466V) above, with V466G, V600E counted along it
# T4 sequence (P15056 whole entry G469A): as the sequence (P15056 whole entry G466V) above, with V466G, G469A counted along it
DC50 (BRAF D594G; [1]) [µM],Dmax (BRAF D594G; [2]) [%],DC50 (BRAF G466V; [3]) [µM],Dmax (BRAF G466V; [4]) [%],DC50 (BRAF V600E; [5]) [µM],Dmax (BRAF V600E; [6]) [%],DC50 (BRAF G469A; [7]) [µM],Dmax (BRAF G469A; [8]) [%],DC50 (BRAF D594G; [9]) [µM],Dmax (BRAF D594G; [10]) [%],DC50 (BRAF G466V; [11]) [µM],Dmax (BRAF G466V; [12]) [%],DC50 (BRAF V600E; [13]) [µM],Dmax (BRAF V600E; [14]) [%],DC50 (BRAF G469A; [15]) [µM],Dmax (BRAF G469A; [16]) [%],Structure (SMILES)
< 0.01,30 to 70,0.01 to 0.05,30 to 70,0.01 to 0.05,> 70,0.01 to 0.05,30 to 70,–,–,–,–,–,–,–,–,"CCN(C)S(=O)(=O)Nc1cccc(-c2nc(C(C)(C)C)sc2-c2ccnc(Nc3ccc(N4CCN(CC5CCN(c6ccc([C@@H]7CCC(=O)NC7=O)cc6)CC5)CC4)cn3)n2)c1F [Compound 127, (3S)-3-{4-[4-({4-[6-({4-[2-tert-butyl-4-(3-{[ethyl(methyl)sulfamoyl]amino}-2-fluorophenyl)-1,3-thiazol-5-yl]pyrimidin-2-yl}amino)pyridin-3-yl]piperazin-1-yl}methyl)piperidin-1-yl]phenyl}piperidine-2,6-dione]"
–,–,–,–,–,–,–,–,< 0.01,> 70,< 0.01,> 70,< 0.01,> 70,< 0.01,> 70,"O=C1CC[C@H](c2ccc(N3CCC(CN4CCN(c5ccc(-n6cc(-c7cc(C(F)F)cc(NS(=O)(=O)N8CCCC8)c7F)c(-c7ccncc7)n6)cc5)CC4)CC3)cc2)C(=O)N1 [Compound 349, N-[5-(difluoromethyl)-3-[1-(4-{4-[(1-{4-[(3R)-2,6-dioxopiperidin-3-yl]phenyl}piperidin-4-yl)methyl]piperazin-1-yl}phenyl)-3-(pyridin-4-yl)-1H-pyrazol-4-yl]-2-fluorophenyl]pyrrolidine-1-sulfonamide]"
< 0.01,30 to 70,< 0.01,30 to 70,< 0.01,> 70,0.01 to 0.05,30 to 70,–,–,–,–,–,–,–,–,"CCCS(=O)(=O)Nc1cccc(-c2nc(C3CCN(C(=O)C4CCN(C(=O)C5CCN(c6ccc(C7CCC(=O)NC7=O)cn6)CC5)CC4)CC3)sc2-c2ccnc(N[C@H](C)CO)n2)c1F (mixture of isomers) [Compound 180, N-[3-(2-{1-[1-(1-{5-[(3RS)-2,6-dioxopiperidin-3-yl]pyridin-2-yl}piperidine-4-carbonyl)piperidine-4-carbonyl]piperidin-4-yl}-5-(2-{[(2R)-1-hydroxypropan-2-yl]amino}pyrimidin-4-yl)-1,3-thiazol-4-yl)-2-fluorophenyl]propane-1-sulfonamide]"
–,–,–,–,–,–,–,–,< 0.01,> 70,< 0.01,> 70,< 0.01,> 70,0.01 to 0.05,30 to 70,"CCN(C)S(=O)(=O)Nc1cc(F)cc(-c2cn(-c3ccc(N4CCN(CC5CCN(c6ccc(C7CCC(=O)NC7=O)cn6)CC5)CC4)cc3)nc2-c2ccncc2)c1F (racemic) [Compound 376, Rac-(3R)-3-(6-{4-[(4-{4-[4-(3-{[ethyl(methyl)sulfamoyl]amino}-2,5-difluorophenyl)-3-(pyridin-4-yl)-1H-pyrazol-1-yl]phenyl}piperazin-1-yl)methyl]piperidin-1-yl}pyridin-3-yl)piperidine-2,6-dione]"
–,–,–,–,–,–,–,–,< 0.01,30 to 70,< 0.01,30 to 70,< 0.01,> 70,0.05 to 0.5,30 to 70,"C[C@@H]1CN(c2ccc(-n3cc(-c4cc(Cl)cc(NS(=O)(=O)N5CCCC5)c4F)c(-c4ccncc4)n3)nc2)CCN1CC1CCN(c2ccc(N3CCC(=O)NC3=O)cc2)CC1 [Compound 324, N-[5-chloro-3-(1-{5-[(3R)-4-({1-[4-(2,4-dioxo-1,3-diazinan-1-yl)phenyl]piperidin-4-yl}methyl)-3-methylpiperazin-1-yl]pyridin-2-yl}-3-(pyridin-4-yl)-1H-pyrazol-4-yl)-2-fluorophenyl]pyrrolidine-1-sulfonamide]"
–,–,–,–,0.01 to 0.05,30 to 70,–,–,–,–,–,–,–,–,–,–,"CCCS(=O)(=O)Nc1cccc(-c2nc(-c3ccc(C4CCN(C(=O)CC5CCN(c6ccc(NC7CCC(=O)NC7=O)cc6)CC5)CC4)cc3)sc2-c2ccnc(N)n2)c1F (racemic) [Compound 185, Rac-N-{3-[5-(2-aminopyrimidin-4-yl)-2-[4-(1-{2-[1-(4-{[(3R)-2,6-dioxopiperidin-3-yl]amino}phenyl)piperidin-4-yl]acetyl}piperidin-4-yl)phenyl]-1,3-thiazol-4-yl]-2-fluorophenyl}propane-1-sulfonamide]"
–,–,–,–,0.01 to 0.05,30 to 70,–,–,–,–,–,–,–,–,–,–,"CCCS(=O)(=O)Nc1cccc(-c2nc(-c3ccc(N4CCN(C(=O)C5CCN(c6ccc(C7CCC(=O)NC7=O)cc6)CC5)CC4)cc3)sc2-c2ccnc(N)n2)c1F (racemic) [Compound 190, Rac-N-{3-[5-(2-aminopyrimidin-4-yl)-2-{4-[4-(1-{4-[(3R)-2,6-dioxopiperidin-3-yl]phenyl}piperidine-4-carbonyl)piperazin-1-yl]phenyl}-1,3-thiazol-4-yl]-2-fluorophenyl}propane-1-sulfonamide]"
–,–,–,–,0.01 to 0.05,> 70,–,–,–,–,–,–,–,–,–,–,"CCCS(=O)(=O)Nc1cccc(-c2nc(C(C)(C)C)sc2-c2ccnc(NC3CC4(C3)CN(CC3CCN(C(=O)C5CCN(c6ccc(C7CCC(=O)NC7=O)cc6)CC5)CC3)C4)n2)c1F (racemic) [Compound 140, Rac-N-[3-(2-tert-butyl-5-{2-[(2-{[1-(1-{4-[(3R)-2,6-dioxopiperidin-3-yl]phenyl}piperidine-4-carbonyl)piperidin-4-yl]methyl}-2-azaspiro[3.3]heptan-6-yl)amino]pyrimidin-4-yl}-1,3-thiazol-4-yl)-2-fluorophenyl]propane-1-sulfonamide]"
